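Five concentrations, 48 hours, 96-well plates. GI50 = concentration required for 50% inhibition of growth. TGI: concentration producing complete growth inhibition.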

Common to all, as to test: NCI-60 cell line screen, 48 h
Assay [1] deals with 786-0 renal.
In assay [2] the test system is HCT-116 colon.
Assay [3] concerns HOP-92 NSCLC.
Assay [4] relates to LOX IMVI melanoma.
For assay [5], the system named is MDA-MB-231 breast.
Assay [6] deals with MOLT-4 leukemia.
In assay [7] the test system is NCI-H23 lung.
Assay [8] has as its system SK-MEL-28 melanoma.
For assay [9], the system named is SNB-75 CNS.
The test system of assay [10] is UO-31 renal.

Take `Cc1cc(N(CCCl)CCCl)ccc1C=Nc1ccc(-c2csc(Cc3ccccc3)n2)cc1`: the GI50 was 5.86 µM in [1]; 13.6 µM in assay [2]; 1.53 µM in assay [3]; 7.95 µM in assay [4]; 12.3 µM in assay [5]; 2.22 µM in [6]. Further, the GI50 in assay [7] is 8.96 µM; in assay [8], 17.9 µM; in assay [9] it was 3.03 µM; in assay [10], 2.61 µM. In addition, the TGI in assay [1] came to 49.1 µM; in assay [2] it was 40.3 µM; in [3], 12.3 µM; in assay [4], 20.8 µM; in assay [5], 49.5 µM; in assay [6], 62 µM. In addition, the TGI was 44.1 µM in assay [7], 63.1 µM in assay [8], 33.5 µM in assay [9] and 26.8 µM in assay [10].
In the case of `OC(c1cc(-c2ccccc2)nc2ccc(Cl)cc12)C1CCCCN1` (stereo not given), the GI50 is 1.96 µM in [1]; 1.76 µM in assay [2]; 2.02 µM in assay [3]; 1.55 µM in [4]; 1.78 µM in assay [5]; 2.51 µM in assay [6]. Also, the GI50 in assay [7] was 1.79 µM; in assay [8] it was 1.77 µM; in [9] it was 1.83 µM; in [10], 1.73 µM. Moreover, the TGI was 4.57 µM in assay [1]; 3.21 µM in assay [2]; 6.87 µM in assay [3]; 2.91 µM in [4]; 3.94 µM in assay [5]; 6.2 µM in assay [6]. In addition, the TGI is 3.42 µM in assay [7], 3.36 µM in assay [8], 5.74 µM in assay [9] and 4.19 µM in assay [10].
Consider `COc1ccc(-c2nn3c(-c4cc(F)c(Cl)cc4Cl)nnc3s2)cc1`, for which the GI50 in assay [1] is 33.4 µM; in assay [2] it was 20.8 µM; in assay [3] it was 24.2 µM; in [4], 26.4 µM; in assay [5] it was 27.7 µM; in [6], 26.5 µM. Besides, the GI50 in assay [7] was 29.9 µM; in assay [8], 25.8 µM; in [9], 17.2 µM; in assay [10], 18.3 µM. Also, the TGI in [1] is more than 100 µM; in assay [2], 52.9 µM; in assay [3], 77.9 µM; in [4], more than 100 µM; in assay [5] it was more than 100 µM; in [6] it was 80.7 µM. Further, the TGI is more than 100 µM in assay [7], more than 100 µM in assay [8], 51.5 µM in assay [9] and more than 100 µM in assay [10].
With `CCOC(=O)c1c2c(n3ccccc13)C(=O)c1ccccc1C2=O`, the TGI in assay [1], in assay [2], in assay [3], in assay [4], in assay [5] and in assay [6] was more than 100 µM in each case. The TGI is more than 100 µM in assay [7], more than 100 µM in assay [8], 74.6 µM in [9] and more than 100 µM in assay [10].
`O=C(/C=C/c1ccccc1)c1cc(Br)ccc1O`: the TGI in assay [1] is 28.8 µM; in assay [2], 32.3 µM; in assay [3] it was 18.3 µM; in assay [4], 27.5 µM; in assay [5], 42.5 µM; in assay [6] it was 36.3 µM. The TGI in [7] stood at 31.4 µM; in assay [8] it was 31.5 µM; in [9], 28.9 µM; in assay [10], 22.9 µM.
Take `COC(=O)[C@H](C[C@H](Cc1ccccc1)NC(=O)c1csc([C@@H](C[C@H](C(C)C)N(C)C(=O)[C@@H](NC(=O)[C@H]2CCCCN2C)C(C)C)OC(C)=O)n1)NC(=O)OCc1ccccc1`: the GI50 in assay [1] is 0.00159 µM; in assay [2], less than 0.0009 µM; in assay [3] it was 0.00163 µM; in assay [4], less than 0.0009 µM; in assay [5] it was 0.00108 µM; in assay [6] it was less than 0.0009 µM. The GI50 in [7] is 0.00111 µM; in assay [8], 0.0025 µM; in [9], less than 0.0009 µM; in [10], 0.0111 µM. The TGI is more than 3.67 µM in [1]; more than 9 µM in assay [3]; more than 9 µM in [4]; more than 4.9 µM in [5]; more than 9 µM in [6]; more than 9 µM in [7]. Further, the TGI in assay [8] was 2.5 µM; in assay [9] it was more than 9 µM; in assay [10], more than 9 µM.
Regarding `COc1ccc2c(c1)/C(=C\c1c(C)nc3sccn13)C(=O)N2`, the TGI in [1] was more than 100 µM; in assay [2], more than 31.8 µM; in [3], more than 100 µM; in assay [4] it was more than 100 µM; in [5], 26.2 µM; in [7], more than 100 µM. Further, the TGI in assay [8] was more than 100 µM; in assay [9] it was more than 100 µM; in assay [10] it was 20.3 µM. The GI50 in assay [3] is 0.83 µM; in assay [4], less than 0.01 µM; in assay [5], less than 0.01 µM; in assay [6] it was less than 0.0462 µM; in assay [7], 0.382 µM; in [8], 66.3 µM. Moreover, the GI50 in [9] is 0.372 µM; in [10], 0.0147 µM.
With `CC[C@@H](C(=O)O)C1CC[C@H](C)C([C@@H](C)[C@H](O)[C@H](C)C(=O)[C@H](CC)C2O[C@]3(C=C[C@@H](O)[C@]4(CC[C@@](C)(C5CC[C@](O)(CC)[C@H](C)O5)O4)O3)[C@H](C)C[C@@H]2C)O1` (stereo not given in full), the GI50 in assay [1] was 0.656 µM; in assay [2], 0.369 µM; in assay [3], 0.317 µM; in [4] it was 0.641 µM; in assay [5], 0.863 µM; in [6], 1.47 µM. Moreover, the GI50 in assay [7] was 0.186 µM; in assay [8] it was 0.549 µM; in assay [9], 0.774 µM; in assay [10], 0.784 µM. The TGI came to 7.92 µM in assay [1]; 16.6 µM in [2]; 4.93 µM in [3]; 13.6 µM in assay [4]; 5.51 µM in assay [5]; 5.92 µM in assay [6]. Moreover, the TGI in [7] came out at 5.76 µM; in [8] it was 1.93 µM; in [9] it was 4.18 µM; in assay [10] it was 15.9 µM.
Take `CCc1nccc2c1nc(-c1nonc1N)n2CC`: the GI50 was more than 25 µM in assay [1]; 20.4 µM in [2]; 1.39 µM in [3]; more than 25 µM in assay [4]; more than 25 µM in assay [5]; more than 25 µM in [6]. In addition, the GI50 in assay [7] is more than 25 µM; in assay [8] it was more than 25 µM; in [9], more than 23.4 µM; in assay [10], 9.73 µM. Also, the TGI in [1] was more than 25 µM; in [2], more than 25 µM; in [3], 21.5 µM; in [4] it was more than 25 µM; in [5], more than 25 µM; in [6], more than 25 µM. In addition, the TGI in [7], in assay [8], in assay [9] and in assay [10] was more than 25 µM in each case.
Turning to `CN(C)CCCNC(CC#N)CCC#N` (stereo not given), the TGI in assay [1], in [2], in [3], in [4], in [5] and in assay [6] was more than 10 µM throughout. Besides, the TGI in assay [7], in assay [8], in assay [9] and in assay [10] was more than 10 µM each time.
For the compound `O=C(NCCCCCCNC(=O)n1cc(F)c(=O)[nH]c1=O)NCCCOCCOCCOCCOCCOCCOCCOCCOCCOCCOCCOCCOCCOCCOCCOCCOCCOCCOCCOCCOCCOCCCNC(=O)C(O)C(O)C(O)C(O)CO` (stereo not given), the TGI in assay [1], in [2], in [3], in assay [4], in assay [5] and in assay [6] was more than 100 µM in each case. Further, the TGI in assay [7], in [8], in assay [9] and in assay [10] was more than 100 µM each time.
Consider `Nc1ccccc1C#C/C=C\C#Cc1cccs1`, for which the GI50 in assay [1] is 13.5 µM; in assay [2], 9.55 µM; in [3], 6.4 µM; in [4], 3.55 µM; in [6], 2.49 µM; in assay [7], 14.3 µM. The GI50 was 24.6 µM in [8], 16.8 µM in assay [9] and 8.77 µM in assay [10]. Also, the TGI in assay [1] was 35.1 µM; in assay [2], 46.5 µM; in [3], 36.6 µM; in [4], 14.7 µM; in [5], 4.47 µM; in [6], 84.1 µM. The TGI in assay [7] was 41.2 µM; in assay [8], more than 67.5 µM; in assay [9], 61.9 µM; in assay [10], more than 43.5 µM.
As to `COc1ccc(/C(C#N)=C/c2ccccc2OC)cc1`, the GI50 in assay [1] is 15.2 µM; in assay [2], 4.46 µM; in assay [3] it was 4.57 µM; in assay [4] it was 6.6 µM; in assay [5], 7.02 µM; in [6], 5.49 µM. The GI50 in assay [7] was 18.8 µM; in assay [8] it was 17.5 µM; in [9], 4.07 µM; in [10] it was 17 µM. For the same compound, the TGI in assay [1] was more than 100 µM; in [2], more than 100 µM; in assay [3], 70.8 µM; in assay [4] it was more than 100 µM; in assay [5], more than 100 µM; in assay [6], more than 100 µM. Also, the TGI was more than 100 µM in assay [7], more than 100 µM in assay [8], 32.8 µM in assay [9] and more than 100 µM in assay [10].
For the compound `CCOC(=O)c1cc(NS(=O)(=O)c2ccccc2)cc(C(=O)OCC)c1`, the GI50 in [1], in assay [2], in [3], in assay [4], in assay [5] and in assay [6] was more than 100 µM throughout. The GI50 in assay [7], in assay [8], in [9] and in assay [10] was more than 100 µM in each case. Besides, the TGI in assay [1], in assay [2], in assay [3], in assay [4], in [5] and in [6] was more than 100 µM throughout. Moreover, the TGI in assay [7], in assay [8], in [9] and in [10] was more than 100 µM throughout.
On to `O=C1c2cccnc2C(=O)c2nc3cc(N4CCN(C5CC5)CC4)ccc3nc21`, for which the GI50 was 1.38 µM in assay [1]; 0.789 µM in [2]; 2.93 µM in assay [3]; 0.416 µM in assay [4]; 2.15 µM in [5]; 2.4 µM in assay [6]. Also, the GI50 in [7] is 0.229 µM; in assay [8], 0.567 µM; in assay [9], 0.147 µM; in assay [10], 0.259 µM. Besides, the TGI in [1] was 4 µM; in [2], 7.12 µM; in assay [3] it was 9.95 µM; in assay [4] it was 1.86 µM; in [5], 8.08 µM; in assay [6], 5.62 µM. Also, the TGI in assay [7] is 0.85 µM; in assay [8] it was 1.98 µM; in assay [9] it was 1.37 µM; in [10] it was 1.92 µM.
For `COc1ccc(-c2n/c(=C\c3c(O)[nH]c4ccc(OC)cc34)cc3c2=Nc2ccccc2-3)cc1`, the GI50 was 1.92 µM in [1]; 1.85 µM in assay [2]; 13.8 µM in assay [3]; 19.9 µM in assay [4]; 1.73 µM in assay [5]; 2.41 µM in assay [6]. In addition, the GI50 in [7] is 1.89 µM; in assay [8], 1.9 µM; in [9], 1.55 µM; in assay [10], 18 µM. The TGI amounted to 3.37 µM in assay [1]; 3.33 µM in [2]; 36.1 µM in [3]; 75.4 µM in assay [4]; 4.27 µM in assay [5]; 5.27 µM in [6]. For the same compound, the TGI in assay [7] was 3.97 µM; in [8] it was 3.32 µM; in [9], 2.99 µM; in [10], 56.1 µM.

(Values after PubChem BioAssay (NCI).)
